Experiments:
[1] = system: human subjects with obesity-related heart failure with preserved ejection fraction; assay: Randomised, double-blind, placebo-controlled clinical trial of semaglutide in obesity-related HFpEF (Example 1); type: in vivo; settings: for Time to first HF event from randomisation leading to either hospitalisation or an urgent visit, Hazard ratio: Semaglutide 2.4 mg/placebo; for Observed KCCQ-CSS mean change from baseline: 2.4 mg once weekly subcutaneously
Excerpt: The Kansas City Cardiomyopathy Questionnaire (KCCQ) is a disease-specific health status instrument composed of 23 items that quantify the domains of physical limitation, symptoms, self-efficacy, social limitation, and health-related quality of life limitation from heart failure (available via cvoutcomes.org). The questions of the KCCQ are as published in the appendix of Green et al., JACC 2000; 35 (5): 1245-55:
The Kansas City Cardiomyopathy Questionnaire clinical summary score (KCCQ-CSS) is used for interpretation of the KCCQ and scores range from 0 to 100 where higher scores indicate better function. KCCQ-CSS is calculated as the mean of the available summary scores Physical Limitation Score and Total Symptom Score from the KCCQ. […] “Total Symptom Score” is calculated as the mean of the available summary scores Symptom Frequency Score and Symptom Burden Score. “Symptom Frequency Score” is calculated, if answer to at least two of Questions 3, 5, 7 and 9 are not missing, as 100*(mean of S3, S5, S7 and S9 answered), where S3=[(Question 3)−1]/4, S5=[(Question 5)−1]/6, S7=[(Question 7)−1]/6, and S9=[(Question 9)−1]/4; answers to Question 3 are scored as follows: Every morning=1, 3 or more times a week but not every day=2, 1-2 times a week=3, Less than once a week=4, Never over the past 2 weeks=5; answers to Questions 5 and 7 are scored as follows: All of the time=1, Several times a day=2, At least once a day=3, 3 or more times a week but not every day=4, 1-2 times a week=5, Less than once a week=6, or Never over the past 2 weeks=7; and answers to Question 9 are scored as follows: Every night=1, 3 or more times a week but not every day=2, 1-2 times a week=3, Less than once a week=4, or Never over the past 2 weeks=5. “Symptom Burden Score” is calculated, if answer to at least one of Questions 4, 6 and 8 is not missing, as 100*[(mean of Questions 4, 6 and 8 answered)−1]/4 where answers are scored as follows: Extremely bothersome=1, Quite a bit bothersome=2, Moderately bothersome=3, Slightly bothersome=4, Not at all bothersome=5, or I've had no swelling/fatigue/shortness of breath=5. The term “mean of questions answered” as used herein refers to that for a scale with n in questions where the subject must answer m to score the scale, but the subject answers only n-i, where n-i>=m, then the mean of those questions is calculated as (sum of answers to those n-i questions)/(n-i).
The six minute walk test (6MWT) is a determination of the distance a subject is able to walk over a period of six minutes where the subject traverses, at its own pace and resting as needed, back and forth along a marked walkway of 20 meters with the goal of walking as far as possible without running. The distance obtained from 6MWT is referred to as the six minute walk distance (6MWD). The 6MWT is a direct and timed measure of walking ability, which is technically simple and reproducible.
Heart failure exists in different degrees of severity. The most commonly used classification system of heart failure is the New York Heart Association Functional Classification (also referred to as “NYHA”). NYHA categorises subjects in one of four classes I-IV (Table A), based on their degree of limitation during physical activity, and optionally an additional subgroup A-D based on objective assessments, for further details see The Criteria Committee of the New York Heart Association. Nomenclature and Criteria for Diagnosis of Diseases of the Heart and Great Vessels. 9th ed. Boston, Mass: Little, Brown & Co; 1994:253-256.
A randomised, double-blind, international multicentre, placebo-controlled clinical trial with semaglutide was carried out with 529 human subjects with obesity-related heart failure with preserved ejection fraction. Key inclusion criteria were body mass index (BMI) of at least 30 kg/m^2, NYHA Class II-IV, and LVEF of at least 45% at time of screening for the clinical trial. […]

[2] = system: hospitalisation for heart failure; settings: 0.5 mg or 1.0 mg subcutaneous once weekly, compared to placebo; cited from earlier work
[3] = pair-wise comparisons vs. placebo, 2.4 mg
[4] = week 52, 2.4 mg once weekly vs. placebo
[5] = week 52, 2.4 mg once weekly vs. placebo, listed as semaglutide
[6] = week 52, 2.4 mg once weekly, ANCOVA estimate

N-epsilon26-[2-(2-{2-[2-(2-{2-[(S)-4-Carboxy-4-(17-carboxyheptadecanoyl-amino) butyrylamino]ethoxy}ethoxy) acetylamino]ethoxy}ethoxy) acetyl] [Aib8,Arg34] GLP-1-(7-37) [Semaglutide]
Inflammation ([1]; HFpEF and obesity, no data given): reduced inflammation
Time to first HF event from randomisation leading to either hospitalisation or an urgent visit, Hazard ratio [1]: 0.08
Time to first HF event from randomisation leading to either hospitalisation or an urgent visit, Hazard ratio ([1]; listed as semaglutide): risk of experiencing a heart failure event was less
Patients improved or with no change in NYHA class compared with placebo ([1]; baseline to 52 weeks): more patients treated with semaglutide improved or observed no change in NYHA class
More wins on semaglutide as compared to placebo ([1]; hierarchical composite endpoint): 72%
Hierarchical composite endpoint, Loss: All-cause death [1, 3]: 1.1%
Hierarchical composite endpoint, Loss: Change in 6MWD ≥30 meters difference [1, 3]: 3.7%
Hierarchical composite endpoint, Loss: Change in KCCQ-CSS ≥5 points difference [1, 3]: 7.0%
Hierarchical composite endpoint, Loss: Change in KCCQ-CSS ≥10 points difference [1, 3]: 5.6%
Hierarchical composite endpoint, Loss: Change in KCCQ-CSS ≥15 points difference [1, 3]: 17.5%
Hierarchical composite endpoint, Loss: Number of HF events [1, 3]: 0.0%
Hierarchical composite endpoint, Loss: Time-to-first HF event [1, 3]: 0.0%
Hierarchical composite endpoint, Loss: Total [1, 3]: 34.9%
Hierarchical composite endpoint, Proportion of ties [1, 3]: Proportion of ties: 5.1%.
Hierarchical composite endpoint, Wins: All-cause death [1, 3]: 1.5%
Hierarchical composite endpoint, Wins: Change in 6MWD ≥30 meters difference [1, 3]: 6.3%
Hierarchical composite endpoint, Wins: Change in KCCQ-CSS ≥5 points difference [1, 3]: 8.2%
Hierarchical composite endpoint, Wins: Change in KCCQ-CSS ≥10 points difference [1, 3]: 7.2%
Hierarchical composite endpoint, Wins: Change in KCCQ-CSS ≥15 points difference [1, 3]: 33.7%
Hierarchical composite endpoint, Wins: Number of HF events [1, 3]: 3.3%
Hierarchical composite endpoint, Wins: Time-to-first HF event [1, 3]: 0.0%
Hierarchical composite endpoint, Wins: Total [1, 3]: 60.1%
Observed body weight (%) mean change from baseline ([1]; week 0, 2.4 mg once weekly): 0%
Observed six minutes walk distance mean change from baseline ([1]; week 0, 2.4 mg once weekly): 0 meters
Observed KCCQ-CSS mean change from baseline ([1]; week 0): 0
Observed body weight (%) mean change from baseline ([1]; week 4, dose escalation to 2.4 mg once weekly): −2.1%
Observed body weight (%) mean change from baseline ([1]; week 8, dose escalation to 2.4 mg once weekly): −3.2%
Observed body weight (%) mean change from baseline ([1]; week 12, dose escalation to 2.4 mg once weekly): −5.0%
Observed body weight (%) mean change from baseline ([1]; week 16, dose escalation to 2.4 mg once weekly): −6.6%
Observed body weight (%) mean change from baseline ([1]; week 20, 2.4 mg once weekly): −7.8%
Observed six minutes walk distance mean change from baseline ([1]; week 20, 2.4 mg once weekly): 14.3 meters
Observed KCCQ-CSS mean change from baseline ([1]; week 20): 11.0
Observed body weight (%) mean change from baseline ([1]; week 28, 2.4 mg once weekly): −10.2%
Observed body weight (%) mean change from baseline ([1]; week 36, 2.4 mg once weekly): −12.1%
Observed KCCQ-CSS mean change from baseline ([1]; week 36): 15.0
Observed body weight (%) mean change from baseline ([1]; week 44, 2.4 mg once weekly): −12.9%
NYHA class from baseline to week 52: Improvement ([1]; week 52, 2.4 mg once weekly): 36.4%
NYHA class from baseline to week 52: No change ([1]; week 52, 2.4 mg once weekly): 61.7%
NYHA class from baseline to week 52: Worsening ([1]; week 52, 2.4 mg once weekly): 2.0%
Observed body weight (%) mean change from baseline ([1]; week 52, 2.4 mg once weekly): −13.9%
Observed proportion improving ≥5 points from baseline in KCCQ-CSS ([1]; week 52, 2.4 mg once weekly): 75%
Observed proportion improving ≥10 points from baseline in KCCQ-CSS ([1]; week 52, 2.4 mg once weekly): 63%
Observed six minutes walk distance mean change from baseline ([1]; week 52, 2.4 mg once weekly): 23.5 meters
Observed KCCQ-CSS mean change from baseline ([1]; week 52): 16.8
Body weight (%) change from baseline to week 52, Treatment difference vs. placebo [1, 4]: −10.7%
Improvement of ≥5 points in KCCQ-CSS, Treatment Odds ratio vs. placebo [1, 4]: 1.88
Improvement of ≥10 points in KCCQ-CSS, Treatment Odds ratio vs. placebo [1, 4]: 2.10
KCCQ-CSS change from baseline to week 52, Treatment difference vs. placebo [1, 4]: 7.8 score
Six minutes walk distance change from baseline to week 52, Treatment difference vs. placebo [1, 4]: 20.3 meters
Body weight (%) change from baseline to week 52, Treatment difference vs. placebo [1, 5]: significantly larger body weight loss
KCCQ-CSS change from baseline to week 52, Treatment difference vs. placebo [1, 5]: significantly larger improvement in KCCQ-CSS
Six minutes walk distance change from baseline to week 52, Treatment difference vs. placebo [1, 5]: significantly larger improvement in six minutes walk distance
Body weight (%) change from baseline to week 52, Estimate [1, 6]: −13.3%
KCCQ-CSS change from baseline to week 52, Estimate [1, 6]: 16.6 score
Six minutes walk distance change from baseline to week 52, Estimate [1, 6]: 21.5 meters
Hospitalisation for heart failure, hazard ratio (95% confidence interval) [2]: 1.11 (0.77−1.61)

From US20260102472A1, “SEMAGLUTIDE IN MEDICAL THERAPY” (Novo Nordisk A/S, priority 2023, published 2026)
